Measurements published in a melting point compilation (Tetko et al.; mined from patent text by program, amines drawn as free bases though some values may be those of a salt).

| Compound | melting point [°C] |
| --- | --- |
| CN(C)c1nc2cc(Br)ccn2n1 | 133 to 134 |
| CC[C@@H](C)NCc1cnc2c(C)c(NC(=O)c3ccc(OC[C@@H]4CCCO4)cc3)ccc2c1 | 118 to 119 |
| CCN(CCOc1cccnc1[N+](=O)[O-])CCN1C(=O)c2ccccc2C1=O | 124 to 126 |
| CCNC(=O)Nc1ccc(-c2nc3n(Cc4c(F)cccc4F)cc(C(=O)OC(C)C)c(=O)n3c2CN(C)Cc2ccccc2)cc1 | 198 to 200 |
| O=C(Nc1ccccc1)Nc1ccc(Cl)cc1C(=O)c1ccccc1 | 145 to 147 |
| CCc1oc(CCOc2ccc(N)cc2)nc1-c1ccccc1 | 89 to 90 |
| COc1ccc(N=c2scc(-c3ccc(Cl)c(S(=O)(=O)N(C)C)c3)n2C)cc1 | 198 to 199 |
| CN1C(=O)CC(=O)N(C)c2ccccc21 | 240 to 242 |
| Cc1ccc(S(=O)(=O)NC2(S(=O)(=O)n3ccc(/C=C/C(=O)NO)c3)C=CC(c3ccccc3)=CC2)cc1 (stereo not drawn) | 119 to 126 |
| CC(OC1CCCN(Cc2ncn[nH]2)C1c1ccccc1)c1cc(C(F)(F)F)cc(C(F)(F)F)c1 (stereo not drawn) | 182 to 183 |
| CC(=O)Oc1cc2c(cc1F)C1(OC(=O)c3c1ccc(N)c3N)c1cc(F)c(OC(C)=O)cc1O2 | 135 |
| C=CCc1cc(C(C)=O)c(OC)cc1OCCCCC#N | 40 to 42 |
| Cc1ccc2c(c1)c(=O)[nH]c1c2c2ccccc2n1C | > 310 |
| CC(=NNc1ccccc1)c1ccc(O)cc1O | 159 |
| C[C@H](c1ccccc1)n1c(=O)c2c(N3CCNCC3)cc(Cl)cc2n(Cc2ccccc2)c1=O | 91 to 96 |
| Cc1coc2cc(N3CCCCC3)c(Cl)cc12 | 82 to 84 |
| O=CN(O)C(CS(=O)(=O)c1ccc(Oc2ccc(OC(F)(F)F)cc2)cc1)CS(=O)(=O)N1CCC2(CC1)OCCO2 (stereo not drawn) | 178 to 179 |
| COc1ccc(C2=NN(c3ccc(C(=O)N4CCN(c5c(Cl)cncc5Cl)CC4)cc3)C(=O)[C@@H]3CC=CC[C@H]23)cc1OC | 137 to 139 |
| Cn1ncc2nn(-c3cc(C(F)(F)F)ccc3F)c(=O)c(Cl)c21 | 177 to 182 |
| Cc1cc(=O)c(C(=O)Oc2ccccc2)nn1-c1ccc(Cl)cc1 | 140 to 146 |
| CCCCNC(=O)CCC(=O)O | 93.5 to 94.5 |
| O=C1c2ccccc2C(=O)N1OCc1cc[nH]n1 | 166 to 168 |
| CCCC(NS(=O)(=O)c1ccc(Cl)cc1)C(=O)Nc1ccc(CC(=O)O)cc1 (racemic) | 202 to 204 |
| Cc1ccc(S(=O)(=O)N(c2ccc(Cl)cc2[N+](=O)[O-])C(C)C)cc1 | 112 to 114 |

| Compound | melting point [°C] |
| --- | --- |
| O=C(CCCCCN1CCN(c2ccc3c(c2)CCC3)CC1)N1Cc2ccccc2C1 | 131 |
| Clc1cc(Nc2ccccc2)c2nc[nH]c2n1 | > 300 |
| CN(C)C1CCN(c2cc3c(Cl)cccc3c(=O)[nH]2)CC1 | 210 to 211 |
| CSc1sc2ccccc2c1C=O | 50 to 53 |
| COC(=O)c1cc(OC)c(Cl)c(C)c1Cl | 74 |
| CCc1noc(C(=O)Nc2ccccc2)c1C(=O)O | 150 to 152 |
| O=C1CCN(C(=S)Nc2ccc(Cl)cc2)N1c1ccc(Cl)cc1 | 121 to 124 |
| COC(=O)c1ccc(C(=O)N2CCN(C(=O)c3ccc(C(=O)OC)cc3)CC2)cc1 | 234 to 237 |
| COc1cc([C@H]2CS[C@@H](c3cc(OC)c(OC)c([N+](=O)[O-])c3)S2)cc(OC)c1OC (relative stereo) | 133 to 134 |
| CCCCCc1ccc(NC2=NCCS2)cc1 | 77 to 78 |
| CCCCCCCCCCCCCCCCOC(=O)c1cc(C(=O)OCCCCCCCCCCCCCCCC)cc(S(=O)(=O)O)c1 | 63 to 65 |
| Clc1ccc2c(C3=CCNCC3)c[nH]c2c1Cl | 252 to 254 |
| CN(C)c1ccc(C2N(c3ccccc3)CCN2c2ccccc2)c(O)c1 | 161 to 165 |
| CC1=C(C(=O)O)C(C)(C)CCC1=O | 181 to 183 |
| O=C(NCC(=O)N1CCCCC1)OCc1ccccc1 | 111 to 112 |
| CC(=O)OCC1OC(n2cc(Cc3ccc(Br)s3)c3c(Cl)cccc32)C(OC(C)=O)C(OC(C)=O)C1OC(C)=O (stereo not drawn) | 185 to 187 |
| Cc1cc(C(C)(C)C)cc(C)c1C1C(=O)CC(C)(C)CC1=O | 224 to 249 |
| Cc1ccccc1[C@@H]1CN(C(=O)C2CCN(C(=O)CO)CC2)CC[C@H]1C(=O)N(C)Cc1cc(C(F)(F)F)cc(C(F)(F)F)c1 (relative stereo) | 173 to 174 |
| CN(CC(C)(C)NCc1c(CO)ccc(OCc2ccccc2)c1CO)c1ccccc1 | 93 to 98 |
| C=C(C)COc1ccc(C(=O)C=Cc2cccs2)c(O)c1 | 119 to 120 |
| CCOC(=O)c1cnn2c1nc(NC(C)CC)c1cnc3c(cnn3CC)c12 (stereo not drawn) | 94 to 97 |
| CCOC(=O)CCNC=C(C(=O)OCC)C(=O)c1cc(F)c(F)c(F)c1F | 96 to 97 |
| CCCOc1ccc(CC(=O)NCCc2ccc(OCC)c(OCC)c2)cc1OCCC | 99 |
| CCN(Cc1cc(Cl)ccc1OCC(C)C)c1ccc(C(=O)O)nn1 | 132 to 134 |
